Assay results from PubChem BioAssay (NCI).
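Cells were grown in 96-well plates and exposed to each compound for 48 hours at five concentrations; endpoints were interpolated linearly between bracketing concentrations, or set to the highest concentration if not reached. Abbreviation: GI50, concentration required for 50% inhibition of growth. TGI is the concentration that stops growth completely.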

Assays:
Test in all cases: NCI tumour cell line growth inhibition, 48 h
HL-60(TB) leukemia = system: HL-60(TB) leukemia
MDA-MB-231 breast = system: MDA-MB-231 breast
MDA-MB-435 = system: MDA-MB-435
HT29 colon = system: HT29 colon
HCT-15 colon = system: HCT-15 colon
SK-MEL-2 melanoma = system: SK-MEL-2 melanoma
SNB-75 CNS = system: SNB-75 CNS
HCC-2998 colon = system: HCC-2998 colon
LOX IMVI melanoma = system: LOX IMVI melanoma
MOLT-4 leukemia = system: MOLT-4 leukemia
SK-MEL-28 melanoma = system: SK-MEL-28 melanoma
ACHN renal = system: ACHN renal
NCI-H226 lung = system: NCI-H226 lung
HOP-62 NSCLC = system: HOP-62 NSCLC
MALME-3M melanoma = system: MALME-3M melanoma
SF-268 CNS = system: SF-268 CNS
SN12C renal = system: SN12C renal
KM12 colon = system: KM12 colon
SNB-19 CNS = system: SNB-19 CNS
UACC-257 melanoma = system: UACC-257 melanoma
OVCAR-3 ovarian = system: OVCAR-3 ovarian
EKVX NSCLC = system: EKVX NSCLC
TK-10 renal = system: TK-10 renal
CCRF-CEM leukemia = system: CCRF-CEM leukemia
UACC-62 melanoma = system: UACC-62 melanoma
COLO 205 colon = system: COLO 205 colon
A549 NSCLC = system: A549 NSCLC
SK-MEL-5 melanoma = system: SK-MEL-5 melanoma
SF-295 CNS = system: SF-295 CNS
NCI/ADR-RES ovarian = system: NCI/ADR-RES ovarian
HCT-116 colon = system: HCT-116 colon
U251 CNS = system: U251 CNS
IGROV1 ovarian = system: IGROV1 ovarian
DU-145 prostate = system: DU-145 prostate
786-0 renal = system: 786-0 renal
MCF7 breast = system: MCF7 breast
M14 melanoma = system: M14 melanoma
OVCAR-8 ovarian = system: OVCAR-8 ovarian
SW-620 colon = system: SW-620 colon
OVCAR-5 ovarian = system: OVCAR-5 ovarian
SF-539 CNS = system: SF-539 CNS
SK-OV-3 ovarian = system: SK-OV-3 ovarian
UO-31 renal = system: UO-31 renal
K-562 leukemia = system: K-562 leukemia
RXF 393 renal = system: RXF 393 renal
OVCAR-4 ovarian = system: OVCAR-4 ovarian
SR leukemia = system: SR leukemia
T-47D breast = system: T-47D breast
NCI-H23 lung = system: NCI-H23 lung
NCI-H460 lung = system: NCI-H460 lung
CAKI-1 renal = system: CAKI-1 renal
BT-549 breast = system: BT-549 breast
PC-3 prostate = system: PC-3 prostate
A498 renal = system: A498 renal
HOP-92 NSCLC = system: HOP-92 NSCLC
RPMI-8226 leukemia = system: RPMI-8226 leukemia
NCI-H522 lung = system: NCI-H522 lung

C=CC1CN2CCC1CC2C(O)c1ccnc2ccccc12 (stereo not drawn)
TGI (HL-60(TB) leukemia): > 100 µM | TGI (MDA-MB-231 breast): > 100 µM | TGI (MDA-MB-435): > 100 µM | GI50 (HT29 colon): > 100 µM | TGI (HT29 colon): > 100 µM | TGI (HCT-15 colon): > 100 µM | TGI (SK-MEL-2 melanoma): > 100 µM | GI50 (SNB-75 CNS): > 100 µM | TGI (SNB-75 CNS): > 100 µM | GI50 (HCC-2998 colon): > 100 µM | TGI (HCC-2998 colon): > 100 µM | GI50 (LOX IMVI melanoma): > 100 µM | TGI (LOX IMVI melanoma): > 100 µM | TGI (MOLT-4 leukemia): > 100 µM | TGI (SK-MEL-28 melanoma): > 100 µM | TGI (ACHN renal): > 100 µM | TGI (NCI-H226 lung): > 100 µM | GI50 (HOP-62 NSCLC): > 100 µM | TGI (HOP-62 NSCLC): > 100 µM | GI50 (MALME-3M melanoma): 0.0846 µM | TGI (MALME-3M melanoma): > 100 µM | TGI (SF-268 CNS): > 100 µM | TGI (SN12C renal): > 100 µM | TGI (KM12 colon): > 100 µM | TGI (SNB-19 CNS): > 100 µM | TGI (UACC-257 melanoma): > 100 µM | TGI (OVCAR-3 ovarian): > 100 µM | GI50 (EKVX NSCLC): > 100 µM | TGI (EKVX NSCLC): > 100 µM | TGI (TK-10 renal): > 100 µM | GI50 (CCRF-CEM leukemia): > 100 µM | TGI (CCRF-CEM leukemia): > 100 µM | TGI (UACC-62 melanoma): > 100 µM | TGI (COLO 205 colon): > 100 µM | TGI (A549 NSCLC): > 100 µM | TGI (SK-MEL-5 melanoma): > 100 µM | TGI (SF-295 CNS): > 100 µM | TGI (NCI/ADR-RES ovarian): > 100 µM | TGI (HCT-116 colon): > 100 µM | TGI (U251 CNS): > 100 µM | GI50 (IGROV1 ovarian): > 100 µM | TGI (IGROV1 ovarian): > 100 µM | TGI (DU-145 prostate): > 100 µM | TGI (786-0 renal): > 100 µM | GI50 (MCF7 breast): 5.05 µM | TGI (MCF7 breast): > 100 µM | GI50 (M14 melanoma): > 100 µM | TGI (M14 melanoma): > 100 µM | TGI (OVCAR-8 ovarian): > 100 µM | TGI (SW-620 colon): > 100 µM | TGI (OVCAR-5 ovarian): > 100 µM | TGI (SF-539 CNS): > 100 µM | TGI (SK-OV-3 ovarian): > 100 µM | GI50 (UO-31 renal): 36.8 µM | TGI (UO-31 renal): > 100 µM | GI50 (K-562 leukemia): > 100 µM | TGI (K-562 leukemia): > 100 µM | TGI (RXF 393 renal): > 100 µM | GI50 (OVCAR-4 ovarian): > 100 µM | TGI (OVCAR-4 ovarian): > 100 µM | GI50 (SR leukemia): > 100 µM | TGI (SR leukemia): > 100 µM | TGI (T-47D breast): > 100 µM | TGI (NCI-H23 lung): > 100 µM | TGI (NCI-H460 lung): > 100 µM | TGI (CAKI-1 renal): > 100 µM | TGI (BT-549 breast): > 100 µM | TGI (PC-3 prostate): > 100 µM

COc1cccc(/C=C/C(=O)c2cc3c(N)c(C(=O)Nc4cccc5ccccc45)sc3nc2C)c1
GI50 (HL-60(TB) leukemia): 1.06 µM | TGI (HL-60(TB) leukemia): 2.61 µM | GI50 (MDA-MB-231 breast): 1.22 µM | TGI (MDA-MB-231 breast): 3.26 µM | GI50 (HT29 colon): 0.65 µM | TGI (HT29 colon): 2.06 µM | GI50 (HCT-15 colon): 0.624 µM | TGI (HCT-15 colon): 1.86 µM | GI50 (SK-MEL-2 melanoma): 1.71 µM | TGI (SK-MEL-2 melanoma): > 50 µM | GI50 (SNB-75 CNS): 1.02 µM | TGI (SNB-75 CNS): 3.15 µM | GI50 (HCC-2998 colon): 1.14 µM | TGI (HCC-2998 colon): 2.79 µM | GI50 (LOX IMVI melanoma): 0.826 µM | TGI (LOX IMVI melanoma): 1.69 µM | GI50 (MOLT-4 leukemia): 1.46 µM | TGI (MOLT-4 leukemia): > 50 µM | GI50 (ACHN renal): 1.23 µM | TGI (ACHN renal): 4.36 µM | GI50 (NCI-H226 lung): 1.2 µM | TGI (NCI-H226 lung): 3.27 µM | GI50 (HOP-62 NSCLC): 1.14 µM | TGI (HOP-62 NSCLC): 3.21 µM | GI50 (MALME-3M melanoma): 1.96 µM | TGI (MALME-3M melanoma): > 50 µM | GI50 (SF-268 CNS): 1.89 µM | TGI (SF-268 CNS): > 50 µM | GI50 (SN12C renal): 1.14 µM | TGI (SN12C renal): 2.98 µM | GI50 (A498 renal): 0.885 µM | TGI (A498 renal): 2.74 µM | GI50 (KM12 colon): 1.4 µM | TGI (KM12 colon): 4.77 µM | GI50 (SNB-19 CNS): 1.69 µM | TGI (SNB-19 CNS): > 50 µM | GI50 (UACC-257 melanoma): 1.48 µM | TGI (UACC-257 melanoma): 10.6 µM | GI50 (OVCAR-3 ovarian): 0.892 µM | TGI (OVCAR-3 ovarian): 2.07 µM | GI50 (EKVX NSCLC): 1.87 µM | TGI (EKVX NSCLC): > 50 µM | GI50 (HOP-92 NSCLC): 0.953 µM | TGI (HOP-92 NSCLC): 4.9 µM | GI50 (TK-10 renal): 1.78 µM | TGI (TK-10 renal): > 50 µM | GI50 (CCRF-CEM leukemia): 0.256 µM | TGI (CCRF-CEM leukemia): > 50 µM | GI50 (UACC-62 melanoma): 1.09 µM | TGI (UACC-62 melanoma): 4.74 µM | GI50 (COLO 205 colon): 1.71 µM | TGI (COLO 205 colon): 34.2 µM | GI50 (A549 NSCLC): 1.46 µM | TGI (A549 NSCLC): > 50 µM | GI50 (SK-MEL-5 melanoma): 1.21 µM | TGI (SK-MEL-5 melanoma): 3.09 µM | GI50 (SF-295 CNS): 1.67 µM | TGI (SF-295 CNS): 23.1 µM | GI50 (RPMI-8226 leukemia): 0.461 µM | TGI (RPMI-8226 leukemia): 2.73 µM | GI50 (NCI/ADR-RES ovarian): 1.33 µM | TGI (NCI/ADR-RES ovarian): 5.75 µM | GI50 (HCT-116 colon): 0.619 µM | TGI (HCT-116 colon): 1.6 µM | GI50 (U251 CNS): 0.97 µM | TGI (U251 CNS): 2.06 µM | GI50 (NCI-H522 lung): 0.435 µM | TGI (NCI-H522 lung): 3.06 µM | GI50 (IGROV1 ovarian): 1.05 µM | TGI (IGROV1 ovarian): 2.78 µM | GI50 (DU-145 prostate): 1.14 µM | TGI (DU-145 prostate): 2.86 µM | GI50 (786-0 renal): 0.851 µM | TGI (786-0 renal): 1.85 µM | GI50 (MCF7 breast): 0.339 µM | TGI (MCF7 breast): > 50 µM | GI50 (M14 melanoma): 1.31 µM | TGI (M14 melanoma): 4.69 µM | GI50 (OVCAR-8 ovarian): 1.23 µM | TGI (OVCAR-8 ovarian): 4.08 µM | GI50 (SW-620 colon): 0.538 µM | TGI (SW-620 colon): 3.1 µM | GI50 (OVCAR-5 ovarian): 1.42 µM | TGI (OVCAR-5 ovarian): 4.6 µM | GI50 (SF-539 CNS): 1.17 µM | TGI (SF-539 CNS): 2.8 µM | GI50 (SK-OV-3 ovarian): 2.24 µM | TGI (SK-OV-3 ovarian): > 50 µM | GI50 (UO-31 renal): 0.889 µM | TGI (UO-31 renal): 2.08 µM | GI50 (K-562 leukemia): 0.562 µM | TGI (K-562 leukemia): > 50 µM | GI50 (RXF 393 renal): 0.803 µM | TGI (RXF 393 renal): 1.9 µM | GI50 (OVCAR-4 ovarian): 2.65 µM | TGI (OVCAR-4 ovarian): > 50 µM | GI50 (SR leukemia): 0.296 µM | TGI (SR leukemia): > 50 µM | GI50 (T-47D breast): 1.22 µM | TGI (T-47D breast): 4.45 µM | GI50 (NCI-H23 lung): 1.96 µM | TGI (NCI-H23 lung): > 50 µM | GI50 (NCI-H460 lung): 1.22 µM | TGI (NCI-H460 lung): 3.45 µM | GI50 (CAKI-1 renal): 1.6 µM | TGI (CAKI-1 renal): 6.34 µM | GI50 (BT-549 breast): 1.2 µM | TGI (BT-549 breast): 3.88 µM | GI50 (PC-3 prostate): 1.48 µM | TGI (PC-3 prostate): 6.22 µM
